Source: PubChem BioAssay (NCI)
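Exposure lasted 48 hours, with cells grown in 96-well plates and compounds tested at five concentrations. At the TGI there is no net growth.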

Columns and labels:
Assay in all cases: NCI anticancer screen, dose series, 48 h
SR leukemia = tested on: SR leukemia
UACC-62 melanoma = tested on: UACC-62 melanoma
T-47D breast = tested on: T-47D breast
EKVX NSCLC = tested on: EKVX NSCLC
HT29 colon = tested on: HT29 colon
SF-268 CNS = tested on: SF-268 CNS
CCRF-CEM leukemia = tested on: CCRF-CEM leukemia
HS 578T breast = tested on: HS 578T breast
A549 NSCLC = tested on: A549 NSCLC
MALME-3M melanoma = tested on: MALME-3M melanoma
SNB-75 CNS = tested on: SNB-75 CNS
ACHN renal = tested on: ACHN renal
M14 melanoma = tested on: M14 melanoma
HCT-116 colon = tested on: HCT-116 colon
NCI-H460 lung = tested on: NCI-H460 lung
SW-620 colon = tested on: SW-620 colon
UACC-257 melanoma = tested on: UACC-257 melanoma
MOLT-4 leukemia = tested on: MOLT-4 leukemia
OVCAR-3 ovarian = tested on: OVCAR-3 ovarian
HOP-92 NSCLC = tested on: HOP-92 NSCLC
NCI-H226 lung = tested on: NCI-H226 lung
OVCAR-4 ovarian = tested on: OVCAR-4 ovarian
K-562 leukemia = tested on: K-562 leukemia
CAKI-1 renal = tested on: CAKI-1 renal
NCI/ADR-RES ovarian = tested on: NCI/ADR-RES ovarian
SK-MEL-5 melanoma = tested on: SK-MEL-5 melanoma
HL-60(TB) leukemia = tested on: HL-60(TB) leukemia
HCC-2998 colon = tested on: HCC-2998 colon
COLO 205 colon = tested on: COLO 205 colon
MCF7 breast = tested on: MCF7 breast
OVCAR-8 ovarian = tested on: OVCAR-8 ovarian
MDA-N = tested on: MDA-N
TK-10 renal = tested on: TK-10 renal
BT-549 breast = tested on: BT-549 breast
SN12C renal = tested on: SN12C renal
U251 CNS = tested on: U251 CNS
LOX IMVI melanoma = tested on: LOX IMVI melanoma
NCI-H23 lung = tested on: NCI-H23 lung
DU-145 prostate = tested on: DU-145 prostate
MDA-MB-435 = tested on: MDA-MB-435
SK-MEL-2 melanoma = tested on: SK-MEL-2 melanoma
OVCAR-5 ovarian = tested on: OVCAR-5 ovarian
IGROV1 ovarian = tested on: IGROV1 ovarian
NCI-H522 lung = tested on: NCI-H522 lung
SK-MEL-28 melanoma = tested on: SK-MEL-28 melanoma
HOP-62 NSCLC = tested on: HOP-62 NSCLC
PC-3 prostate = tested on: PC-3 prostate
SNB-19 CNS = tested on: SNB-19 CNS
RPMI-8226 leukemia = tested on: RPMI-8226 leukemia
SF-539 CNS = tested on: SF-539 CNS
UO-31 renal = tested on: UO-31 renal
HCT-15 colon = tested on: HCT-15 colon
KM12 colon = tested on: KM12 colon
SK-OV-3 ovarian = tested on: SK-OV-3 ovarian
MDA-MB-231 breast = tested on: MDA-MB-231 breast
SF-295 CNS = tested on: SF-295 CNS
786-0 renal = tested on: 786-0 renal
A498 renal = tested on: A498 renal
RXF 393 renal = tested on: RXF 393 renal

C=C1CC(C)(COc2ccc3c(C)cc(=O)oc3c2)OC1=O (stereo not drawn)
TGI (SR leukemia): 4.33 µM
TGI (UACC-62 melanoma): 4.8 µM
TGI (T-47D breast): 3.8 µM
TGI (EKVX NSCLC): 17.8 µM
TGI (HT29 colon): 4.5 µM
TGI (SF-268 CNS): 20.2 µM
TGI (CCRF-CEM leukemia): 2.46 µM
TGI (HS 578T breast): 31.9 µM
TGI (A549 NSCLC): 23.8 µM
TGI (MALME-3M melanoma): 6.75 µM
TGI (SNB-75 CNS): 16.3 µM
TGI (ACHN renal): 7.37 µM
TGI (M14 melanoma): 3.35 µM
TGI (HCT-116 colon): 4.72 µM
TGI (NCI-H460 lung): 20.8 µM
TGI (SW-620 colon): 3.09 µM
TGI (UACC-257 melanoma): 4.35 µM
TGI (MOLT-4 leukemia): 4.2 µM
TGI (OVCAR-3 ovarian): 11 µM
TGI (HOP-92 NSCLC): 3.25 µM
TGI (NCI-H226 lung): 26.2 µM
TGI (OVCAR-4 ovarian): 9.06 µM
TGI (K-562 leukemia): > 31.9 µM
TGI (CAKI-1 renal): 7.53 µM
TGI (NCI/ADR-RES ovarian): 17.6 µM
TGI (SK-MEL-5 melanoma): 3.37 µM
TGI (HL-60(TB) leukemia): 3.94 µM
TGI (HCC-2998 colon): 9.5 µM
TGI (COLO 205 colon): 2.86 µM
TGI (MCF7 breast): 2.39 µM
TGI (OVCAR-8 ovarian): 14.8 µM
TGI (MDA-N): 8.29 µM
TGI (TK-10 renal): 4.06 µM
TGI (BT-549 breast): 7.56 µM
TGI (SN12C renal): 16.8 µM
TGI (U251 CNS): 25.4 µM
TGI (LOX IMVI melanoma): 5.11 µM
TGI (NCI-H23 lung): 14.1 µM
TGI (DU-145 prostate): 8.96 µM
TGI (MDA-MB-435): 8.92 µM
TGI (SK-MEL-2 melanoma): 5.18 µM
TGI (OVCAR-5 ovarian): 16.5 µM
TGI (IGROV1 ovarian): 8.98 µM
TGI (NCI-H522 lung): 0.491 µM
TGI (SK-MEL-28 melanoma): 9.02 µM
TGI (HOP-62 NSCLC): 28.4 µM
TGI (PC-3 prostate): 13.5 µM
TGI (SNB-19 CNS): 28.4 µM
TGI (RPMI-8226 leukemia): 2.57 µM
TGI (SF-539 CNS): 4.59 µM
TGI (UO-31 renal): 18.9 µM
TGI (HCT-15 colon): 4.23 µM
TGI (KM12 colon): 17.4 µM
TGI (SK-OV-3 ovarian): 15.1 µM
TGI (MDA-MB-231 breast): 15.5 µM
TGI (SF-295 CNS): 16.3 µM
TGI (786-0 renal): 5.65 µM

Nc1c(Br)cc(-c2nc3ccccc3s2)cc1Br
TGI (SR leukemia): > 100 µM
TGI (UACC-62 melanoma): > 100 µM
TGI (T-47D breast): > 100 µM
TGI (EKVX NSCLC): > 100 µM
TGI (HT29 colon): > 100 µM
TGI (SF-268 CNS): > 100 µM
TGI (CCRF-CEM leukemia): > 100 µM
TGI (HS 578T breast): > 100 µM
TGI (A549 NSCLC): > 100 µM
TGI (MALME-3M melanoma): > 100 µM
TGI (SNB-75 CNS): > 100 µM
TGI (ACHN renal): > 100 µM
TGI (A498 renal): > 100 µM
TGI (M14 melanoma): > 100 µM
TGI (HCT-116 colon): > 100 µM
TGI (NCI-H460 lung): > 100 µM
TGI (SW-620 colon): > 100 µM
TGI (UACC-257 melanoma): > 100 µM
TGI (MOLT-4 leukemia): > 100 µM
TGI (OVCAR-3 ovarian): > 100 µM
TGI (HOP-92 NSCLC): > 100 µM
TGI (NCI-H226 lung): > 100 µM
TGI (K-562 leukemia): > 100 µM
TGI (CAKI-1 renal): > 100 µM
TGI (NCI/ADR-RES ovarian): > 100 µM
TGI (SK-MEL-5 melanoma): > 100 µM
TGI (HL-60(TB) leukemia): > 100 µM
TGI (HCC-2998 colon): > 100 µM
TGI (COLO 205 colon): > 100 µM
TGI (MCF7 breast): > 100 µM
TGI (OVCAR-8 ovarian): > 100 µM
TGI (MDA-N): > 100 µM
TGI (TK-10 renal): > 100 µM
TGI (BT-549 breast): > 100 µM
TGI (SN12C renal): > 100 µM
TGI (U251 CNS): > 100 µM
TGI (DU-145 prostate): > 100 µM
TGI (MDA-MB-435): > 100 µM
TGI (SK-MEL-2 melanoma): > 100 µM
TGI (OVCAR-5 ovarian): > 100 µM
TGI (IGROV1 ovarian): > 100 µM
TGI (NCI-H522 lung): > 100 µM
TGI (SK-MEL-28 melanoma): > 100 µM
TGI (HOP-62 NSCLC): > 100 µM
TGI (PC-3 prostate): > 100 µM
TGI (SNB-19 CNS): > 100 µM
TGI (SF-539 CNS): > 100 µM
TGI (RXF 393 renal): > 100 µM
TGI (UO-31 renal): > 100 µM
TGI (HCT-15 colon): > 100 µM
TGI (KM12 colon): > 100 µM
TGI (SK-OV-3 ovarian): > 100 µM
TGI (MDA-MB-231 breast): > 100 µM
TGI (SF-295 CNS): > 100 µM
TGI (786-0 renal): > 100 µM

O=C(/C=C/c1ccccc1)OCC1=C[C@@H](O)[C@@H]2C=CO[C@@H](OC3OC(CO)C(O)C(O)C3O)[C@H]12 (stereo partly drawn)
TGI (SR leukemia): > 100 µM
TGI (UACC-62 melanoma): > 100 µM
TGI (T-47D breast): > 100 µM
TGI (EKVX NSCLC): > 100 µM
TGI (HT29 colon): > 100 µM
TGI (SF-268 CNS): > 100 µM
TGI (CCRF-CEM leukemia): > 100 µM
TGI (HS 578T breast): > 100 µM
TGI (A549 NSCLC): > 100 µM
TGI (MALME-3M melanoma): > 100 µM
TGI (SNB-75 CNS): > 100 µM
TGI (ACHN renal): > 100 µM
TGI (A498 renal): > 100 µM
TGI (M14 melanoma): > 100 µM
TGI (HCT-116 colon): > 100 µM
TGI (SW-620 colon): > 100 µM
TGI (UACC-257 melanoma): > 100 µM
TGI (MOLT-4 leukemia): > 100 µM
TGI (OVCAR-3 ovarian): > 100 µM
TGI (HOP-92 NSCLC): > 100 µM
TGI (NCI-H226 lung): > 100 µM
TGI (OVCAR-4 ovarian): > 100 µM
TGI (CAKI-1 renal): > 100 µM
TGI (NCI/ADR-RES ovarian): > 100 µM
TGI (SK-MEL-5 melanoma): > 100 µM
TGI (HCC-2998 colon): > 100 µM
TGI (COLO 205 colon): > 100 µM
TGI (MCF7 breast): > 100 µM
TGI (OVCAR-8 ovarian): > 100 µM
TGI (MDA-N): > 100 µM
TGI (TK-10 renal): > 100 µM
TGI (BT-549 breast): > 100 µM
TGI (SN12C renal): > 100 µM
TGI (U251 CNS): > 100 µM
TGI (LOX IMVI melanoma): > 100 µM
TGI (NCI-H23 lung): > 100 µM
TGI (DU-145 prostate): > 100 µM
TGI (MDA-MB-435): > 100 µM
TGI (SK-MEL-2 melanoma): > 100 µM
TGI (OVCAR-5 ovarian): > 100 µM
TGI (IGROV1 ovarian): > 100 µM
TGI (NCI-H522 lung): > 100 µM
TGI (SK-MEL-28 melanoma): > 100 µM
TGI (HOP-62 NSCLC): > 100 µM
TGI (PC-3 prostate): > 100 µM
TGI (SNB-19 CNS): > 100 µM
TGI (RPMI-8226 leukemia): > 100 µM
TGI (SF-539 CNS): > 100 µM
TGI (RXF 393 renal): > 100 µM
TGI (UO-31 renal): > 100 µM
TGI (HCT-15 colon): > 100 µM
TGI (KM12 colon): > 100 µM
TGI (SK-OV-3 ovarian): > 100 µM
TGI (MDA-MB-231 breast): > 100 µM
TGI (SF-295 CNS): > 100 µM
TGI (786-0 renal): > 100 µM
